*1 amine or outer side, *2 acyl side, *3 side chain or, on linkers, in order; H or OH if unused. Where a SMILES comes first, the peptide text is derived from it. [ ]: non-standard residue; d: D form. The star is where a group is joined. Ala(6-(2-MePh)pyridin-3-yl) = Cc1ccccc1-c1ccc(C[C@H](N)C(=O)O)cn1; Bip(2'-Et-4'-OMe) = CCc1cc(OC)ccc1-c1ccc(C[C@H](N)C(=O)O)cc1; X2 = Cc1ccccc1-c1ncc(C[C@H](N[*:1])C(=O)[*:2])cn1; αMePhe(2,6-F2) = C[C@](N)(Cc1c(F)cccc1F)C(=O)O; αMePhe(2-F) = C[C@](N)(Cc1ccccc1F)C(=O)O; αMeP = C[C@@]1(C(=O)O)CCCN1; dNMeA = CN[C@H](C)C(=O)O; Aib = CC(C)(N)C(=O)O; Moc = COC(=O)*
experiment: Dog pharmacokinetic study; type: in vivo; conditions: sc 67 μg/kg; vehicle propylene glycol/pH 7.4 phosphate buffer (1:1)
Description: The pharmacokinetic parameters of the Compounds of SEQ ID NO: 9, 118, 151 and 158 were determined in male beagle dogs (n=3-4, 14±1 kg). Following an overnight fast, each animal received the Compounds of SEQ ID NO: 9, 118, 151 and 158 either as an intravenous bolus via femoral vein (67 μg/kg) or by subcutaneous injection given at near the shoulder blades (67 μg/kg). Each animal received both intravenous and subcutaneous doses with a one-week washout between doses following a crossover design. The dosing vehicle for both routes of administration was propylene glycol:pH 7.4 phosphate buffer (50:50) or 0.2 M Tris (pH 8.0). Serial blood samples were collected in EDTA-containing microcentrifuge tubes at predose, 0.083, 0.25, 0.5, 0.75, 1, 2, 4, 6, 8, 24, and 30 hours post-dose after intravenous administration; at predose, 0.25, 0.5, 0.75, 1, 2, 4, 6, 8, 24, and 30 hours post-dose after subcutaneous administration. Approximately 0.3 mL of blood was collected at each time point. Blood samples were immediately centrifuged at 4° C. The obtained plasma was frozen with dry ice and stored at −20° C. Plasma drug levels were determined using the LC-MS/MS assay described below.
Plasma samples from the in vivo dog study were prepared for analysis by precipitating plasma proteins with two volumes of AcCN containing an internal standard. The samples were vortex mixed and the precipitated proteins were removed by centrifugation. The resulting supernatants were transferred to a 96-well plate and 10 μL were injected for TFC-LC/MS/MS analysis.
The TFC-HPLC system (Cohesive TX-1 Flux, Aria 2300 System) consisted of a loading pump, an eluting pump, and a CTC PAL autosampler (Cohesive Technologies, Franklin, Mass.). The columns used were Phenomenex Synergi Fusion-RP (C18, 2.0×50 mm, 4μ) (Phenomenex, Torrance, Calif.) as the analytical column and Turbo-Flow (TF) HTLC Cyclone column (0.5×50 mm) (Cohesive Technologies, Franklin, Mass.) as the extraction column for on-line sample processing. The mobile phase A consisted of 10 mM ammonium formate and 0.1% formic acid in water and mobile phase B consisted of 0.1% formic acid in AcCN. Turbo-Flow Chromatography was used to obtain a cleaner sample. A rapid gradient elution was used for analyte separation. The samples were injected onto the Turbo-Flow HTLC Cyclone column and analytes were separated from biological fluid components with using 100% H2O at 1.5 mL/min. The TF column was back flushed and analytes were back eluted from the TF to HPLC analytical column using a ramp to 60% B over 2 min and held there for 30 seconds at 0.3 mL/min to separate and to elute the analytes from the HPLC column into the mass spectrometer. Both columns were washed for an additional minute and then both columns were re-equilibrated at initial conditions.
The HPLC was interfaced to a Sciex API 4000 mass spectrometer (Applied Biosystems, Foster City, Calif.) and was equipped with a TurboIonspray ionization source. Ultra high purity nitrogen was used as the nebulizing and turbo-gas. The temperature of turbo-gas was set at 300° C. and the interface heater was set at 60° C. Selected Reaction Monitoring (SRM) was used for data acquisition. Multiple charged ion species, i.e. (M+2H)^2+ for Compound of SEQ ID NO: 158 were selected in Q1 and were collisionally dissociated with high purity nitrogen at a pressure of 3.5×10^−3 torr in Q2 to form specific product ions which were subsequently monitored in Q3. The ion transitions and voltages are summarized below (Table 4).
The standard curve concentrations, ranging from 1 to 1000 nM, were analyzed in duplicate. The curves were fitted with a linear regression weighted by reciprocal concentration […]. Quality control (QC) samples, prepared in blank matrix at the same concentrations as the standards were also analyzed in each analytical set. […]

| SMILES | Exposure in dogs (sc@67 μg/kg) [µM·h] |
| --- | --- |
| CCc1cc(OC)ccc1-c1ccc(C[C@H](NC(=O)[C@H](CC(=O)O)NC(=O)[C@H](CO)NC(=O)[C@@H](NC(=O)[C@](C)(Cc2c(F)cccc2F)NC(=O)[C@@H](NC(=O)CNC(=O)[C@H](CCC(=O)O)NC(=O)[C@]2(C)CCCN2C(=O)[C@H](Cc2c[nH]cn2)NC(=O)OC)[C@@H](C)O)[C@@H](C)O)C(=O)N[C@@H](Cc2ccc(-c3ccccc3C)nc2)C(N)=O)cc1 [SEQ ID NO: 140] (Moc-H[αMeP]EGT[αMePhe(2,6-F2)]TSD[Bip(2'-Et-4'-OMe)][Ala(6-(2-MePh)pyridin-3-yl)]-NH2) | 0.283 |
| CCc1cc(OC)ccc1-c1ccc(C[C@H](NC(=O)[C@H](CC(=O)O)NC(=O)[C@H](CO)NC(=O)[C@@H](NC(=O)[C@](C)(Cc2ccccc2F)NC(=O)[C@@H](NC(=O)CNC(=O)[C@H](Cc2c[nH]cn2)NC(=O)C(C)(C)NC(=O)[C@@H](N)Cc2c[nH]cn2)[C@@H](C)O)[C@@H](C)O)C(=O)N[C@@H](Cc2ccc(-c3ccccc3C)nc2)C(N)=O)cc1 [SEQ ID NO: 150] (H-H[Aib]HGT[αMePhe(2-F)]TSD[Bip(2'-Et-4'-OMe)][Ala(6-(2-MePh)pyridin-3-yl)]-NH2) | 0.979 |
| CCc1cc(OC)ccc1-c1ccc(C[C@H](NC(=O)[C@H](CC(=O)O)NC(=O)[C@H](Cc2c[nH]cn2)NC(=O)[C@@H](NC(=O)[C@](C)(Cc2ccccc2F)NC(=O)[C@@H](NC(=O)CNC(=O)[C@H](CCC(=O)O)NC(=O)[C@]2(C)CCCN2C(=O)[C@@H](N)Cc2c[nH]cn2)[C@@H](C)O)[C@@H](C)O)C(=O)N[C@@H](Cc2ccc(-c3ccccc3C)nc2)C(N)=O)cc1 [SEQ ID NO: 120] (H-H[αMeP]EGT[αMePhe(2-F)]THD[Bip(2'-Et-4'-OMe)][Ala(6-(2-MePh)pyridin-3-yl)]-NH2) | 1.116 |
| CCc1cc(OC)ccc1-c1ccc(C[C@H](NC(=O)[C@H](CC(=O)O)NC(=O)[C@H](CO)NC(=O)[C@@H](NC(=O)[C@](C)(Cc2ccccc2F)NC(=O)[C@@H](NC(=O)CNC(=O)[C@H](CCC(=O)O)NC(=O)C(C)(C)NC(=O)[C@@H](N)Cc2c[nH]cn2)[C@@H](C)O)[C@@H](C)O)C(=O)N[C@@H](Cc2cnc(-c3ccccc3C)nc2)C(N)=O)cc1 [SEQ ID NO: 130] (H-H[Aib]EGT[αMePhe(2-F)]TSD[Bip(2'-Et-4'-OMe)][X2]-NH2) | 0.541 |
| CCc1cc(OC)ccc1-c1ccc(C[C@H](NC(=O)[C@H](CC(=O)O)NC(=O)[C@H](CO)NC(=O)[C@@H](NC(=O)[C@](C)(Cc2ccccc2F)NC(=O)[C@@H](NC(=O)CNC(=O)[C@H](CCC(=O)O)NC(=O)[C@@H](C)N(C)C(=O)[C@@H](N)Cc2c[nH]cn2)[C@@H](C)O)[C@@H](C)O)C(=O)N[C@@H](Cc2ccc(-c3ccccc3C)nc2)C(N)=O)cc1 [SEQ ID NO: 119] (H-H[dNMeA]EGT[αMePhe(2-F)]TSD[Bip(2'-Et-4'-OMe)][Ala(6-(2-MePh)pyridin-3-yl)]-NH2) | 1.257 |
| CCc1cc(OC)ccc1-c1ccc(C[C@H](NC(=O)[C@H](CC(=O)O)NC(=O)[C@H](CO)NC(=O)[C@@H](NC(=O)[C@](C)(Cc2ccccc2F)NC(=O)[C@@H](NC(=O)CNC(=O)[C@H](CCC(=O)O)NC(=O)[C@@H](C)NC(=O)[C@@H](N)Cc2c[nH]cn2)[C@@H](C)O)[C@@H](C)O)C(=O)N[C@@H](Cc2ccc(-c3ccccc3C)nc2)C(N)=O)cc1 [SEQ ID NO: 149] (H-H[dA]EGT[αMePhe(2-F)]TSD[Bip(2'-Et-4'-OMe)][Ala(6-(2-MePh)pyridin-3-yl)]-NH2) | 0.94 |

Reference: US7960349B2 (Bristol-Myers Squibb Company, priority 2006, dated 2011)
